Experimental findings from article PMC5509055 (Prostaglandins & other lipid mediators, 2017) are described below.

Structures can show the parent of a compound that is named as a salt.

Assay [1] concerns the target sphingosine kinase 1 (SK1) (Homo sapiens, UniProt Q9NYA1). As to the kind of experiment: fluorescent NBD-sphingosine kinase assay with recombinant human SK1. In kind it is biochemical.
Assay [2] addresses T1, sphingosine kinase 2 (SK2) (Homo sapiens, UniProt Q9NRA0).
T1 sequence (Q9NRA0 1-654): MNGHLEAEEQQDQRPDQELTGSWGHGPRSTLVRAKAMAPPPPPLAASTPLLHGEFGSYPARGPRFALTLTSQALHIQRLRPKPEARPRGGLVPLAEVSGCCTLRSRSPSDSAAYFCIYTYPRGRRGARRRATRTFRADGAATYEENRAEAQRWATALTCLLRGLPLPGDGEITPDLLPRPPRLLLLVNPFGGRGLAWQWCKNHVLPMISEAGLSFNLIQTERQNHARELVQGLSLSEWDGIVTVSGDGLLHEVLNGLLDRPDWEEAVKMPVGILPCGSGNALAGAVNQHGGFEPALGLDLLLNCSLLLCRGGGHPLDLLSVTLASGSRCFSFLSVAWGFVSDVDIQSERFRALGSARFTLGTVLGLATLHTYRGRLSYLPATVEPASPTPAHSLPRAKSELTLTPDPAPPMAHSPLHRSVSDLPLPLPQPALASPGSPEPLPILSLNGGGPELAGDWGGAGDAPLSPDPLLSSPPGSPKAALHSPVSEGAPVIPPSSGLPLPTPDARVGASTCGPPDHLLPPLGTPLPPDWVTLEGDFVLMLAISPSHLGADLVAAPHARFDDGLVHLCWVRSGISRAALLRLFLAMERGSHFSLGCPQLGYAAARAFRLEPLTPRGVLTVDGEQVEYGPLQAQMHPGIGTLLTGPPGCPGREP
Briefly: fluorescent NBD-sphingosine kinase assay with recombinant human SK2. In kind it is biochemical.

Sequence of sphingosine kinase 1 (SK1) (Q9NYA1 whole entry): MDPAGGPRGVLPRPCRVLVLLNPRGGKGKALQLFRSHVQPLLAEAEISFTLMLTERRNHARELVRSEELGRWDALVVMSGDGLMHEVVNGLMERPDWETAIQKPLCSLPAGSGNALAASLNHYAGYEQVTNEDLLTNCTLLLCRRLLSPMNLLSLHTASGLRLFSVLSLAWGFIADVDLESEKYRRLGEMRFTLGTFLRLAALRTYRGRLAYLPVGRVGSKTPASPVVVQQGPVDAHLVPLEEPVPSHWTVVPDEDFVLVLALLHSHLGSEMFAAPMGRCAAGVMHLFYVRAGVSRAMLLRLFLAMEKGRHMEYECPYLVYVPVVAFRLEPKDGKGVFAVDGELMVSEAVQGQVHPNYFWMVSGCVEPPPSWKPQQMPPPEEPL

For `CCCCCCCCCCCCC/C=C/[C@H](O)[C@@H](CO)NC(=N)N` [LCL351, L-erythro-2-N-(1′-carboxamidino)-sphingosine hydrochloride], the half-maximal inhibitory concentration (IC50) – broadly, the concentration at which inhibition is half-maximal – in assay [1] was ~5.5 µM; in assay [2], ~57 µM.
